SMILES strings stand for the structures. Numbers after ± are expanded uncertainties.

Results on 2 compounds are retold here after the NIST ThermoML archive (doi:10.1016/j.jct.2018.10.026).

For this series the following is noted: 101.33 kPa, Liquid; for viscosity: Concentric cylinders viscometry; for mass density: Vibrating tube method.

For the compound `C[C@H](O)C(=O)[O-].C[N+](C)(C)CCO`, the viscosity runs as follows: (293.15 K) 5513 ± 1200 mPa·s; (298.15 K) 3929 ± 820 mPa·s; (303.15 K) 2903 ± 600 mPa·s; (308.15 K) 2207 ± 460 mPa·s; (313.15 K) 1728 ± 360 mPa·s; (318.15 K) 1368 ± 280 mPa·s. Also, the viscosity (323.15 K) is given as 1110 ± 230 mPa·s. Further, the mass density reads like this: (293.15 K) 1137.33 ± 11 kg/m3; (298.15 K) 1133.94 ± 11 kg/m3; (303.15 K) 1130.52 ± 11 kg/m3; (308.15 K) 1127.05 ± 11 kg/m3; (313.15 K) 1123.55 ± 11 kg/m3; (318.15 K) 1120.11 ± 11 kg/m3. The mass density (323.15 K) worked out at 1116.7 ± 11 kg/m3.

As for `C[N+](C)(C)CCO.[O-]c1cccc2cccnc12` [choline 8-quinolinolate], the mass density (293.15 K) is recorded as 1162.71 ± 6.5 kg/m3; the mass density (298.15 K) came to 1159.75 ± 6.5 kg/m3; the mass density (303.15 K) was 1156.73 ± 6.4 kg/m3; the mass density (308.15 K) came to 1153.91 ± 6.4 kg/m3; the mass density (313.15 K) came out at 1150.97 ± 6.4 kg/m3; the mass density (318.15 K) stood at 1147.91 ± 6.4 kg/m3. For the setting “323.15 K”, the mass density came out at 1144.78 ± 6.4 kg/m3. In addition, the viscosity is, setting by setting: (303.15 K) 4870960 ± 1.2e+06 mPa·s; (308.15 K) 2363490 ± 570000 mPa·s; (313.15 K) 1331720 ± 310000 mPa·s; (318.15 K) 755840 ± 180000 mPa·s; (323.15 K) 338330 ± 77000 mPa·s.
